Data taken from patent publication US7070811B2, “Directly compressible formulations of azithromycin” (Pfizer Inc., priority 2001, dated 2006).

Key:
[1] = Indices of Tableting Performance (Hiestand and Smith); type: physicochemical; conditions: bulk azithromycin; for Brittle Fracture Index (BFI): Lots 1, 2 and 4 milled (Fitzmill, 0.027" screen, knives, high speed) for this test; for Strain Index (SI) / Tensile Strength / Worst Case Bonding Index (BLw) × 10^2: Lots 1, 2 and 4 milled for this test
Method: Indices of tableting performance, for several azithromycin forms, were assessed to identify any mechanical deficiencies or attributes that may affect the ability to develop a direct compression tablet formulation of azithromycin. This assessment was performed in accordance with the procedures described in “Indices of Tableting Performance” H. E. N. Hiestand and D. P. Smith, Powder Technology 38 [1984] pp. 145–159.
More specifically, the Brittle Fracture Index, BFI, was calculated from the ratio of a material's regular tensile strength to its compromised tensile strength. Strain Index, SI, was determined from the dynamic indentation hardness test. Worst Case Bonding Index was determined by assessing the extent of particle bonding remaining after decompression assuming a very short compression dwell time and a plastic mechanism of particle separation during decompression.
Bulk azithromycin lots 1, 2, 4, 7, 10 and 11 are different crystalline forms, respectively, forms N, M, G, A, F and J. Lots 1, 2 and 4 were milled with a Fitzmill (Model JT, The Fitzpatrick Co., Elmhurst, Ill.) using a 0.027″ screen and knives at high speed in an attempt to match the smaller particle size of Lot 7. Lots 10 and 11 were evaluated as is due to their relatively small particle sizes.

[2] = Carr's Compressibility Index from initial and tapped density; type: physicochemical; conditions: for Carr's Index: blend with ˜60% drug loading
Method: Carr's Compressibility Index is a simple test to evaluate flowability by comparing both the initial and final (tapped) densities and the rate of packing down. A useful empirical guide to flow is given by Carr's compressibility index: Compressibility Index(%)=[(tapped density−initial density)/tapped density]×100
Carr's Compressibility Index of the azithromycin bulk was measured by taking an initial density of a 15 gram sample in a 100 ml graduated cylinder. The sample was tapped 2000 times on a VanKel Tap Density Tester (Model 50-1200, Edison, N.J.) and the tapped density of the 15 gram sample in the 100 ml graduated cylinder was taken. The procedure is described in Int. J. Pharm. Tech. & Prod. Mfr., 6(3) 10–16, 1985.
The ingredients were weighed (except for the magnesium stearate), combined and blended in a low shear blender for 30 minutes. The blend was passed through a U.S. standard No. 20 or No. 25 mesh screen to delump the blend. The screened blend was returned to the blender and blended for an additional 30 minutes. Prior to the addition of the magnesium stearate, the initial and tapped densities of the blend were determined from which a Carr's Compressibility Index for flow was calculated for the blend. Magnesium stearate was then added to the blend, after which it was blended for an additional five minutes.

CC[C@H]1OC(=O)[C@H](C)[C@@H](O[C@H]2C[C@@](C)(OC)[C@@H](O)[C@H](C)O2)[C@H](C)[C@@H](O[C@@H]2O[C@H](C)C[C@H](N(C)C)[C@H]2O)[C@](C)(O)C[C@@H](C)CN(C)[C@H](C)[C@@H](O)[C@]1(C)O [Lot 10, azithromycin]
Brittle Fracture Index (BFI) ([1]; listed as #10 Form F): 0.37 | Strain Index (SI) ([1]; listed as #10 Form F): 0.0041 | Tensile Strength ([1]; listed as #10 Form F): 1.62 Mpa | Worst Case Bonding Index (BLw) × 10^2 ([1]; listed as #10 Form F): 0.9 | Carr's Index [2]: 34

CC[C@H]1OC(=O)[C@H](C)[C@@H](O[C@H]2C[C@@](C)(OC)[C@@H](O)[C@H](C)O2)[C@H](C)[C@@H](O[C@@H]2O[C@H](C)C[C@H](N(C)C)[C@H]2O)[C@](C)(O)C[C@@H](C)CN(C)[C@H](C)[C@@H](O)[C@]1(C)O [Lot 1, azithromycin]
Brittle Fracture Index (BFI) ([1]; listed as #1 Form N): 0.05 | Strain Index (SI) ([1]; listed as #1 Form N): 0.0044 | Tensile Strength ([1]; listed as #1 Form N): 0.75 Mpa | Worst Case Bonding Index (BLw) × 10^2 ([1]; listed as #1 Form N): 0.7

CC[C@H]1OC(=O)[C@H](C)[C@@H](O[C@H]2C[C@@](C)(OC)[C@@H](O)[C@H](C)O2)[C@H](C)[C@@H](O[C@@H]2O[C@H](C)C[C@H](N(C)C)[C@H]2O)[C@](C)(O)C[C@@H](C)CN(C)[C@H](C)[C@@H](O)[C@]1(C)O [Lot 2, azithromycin]
Brittle Fracture Index (BFI) ([1]; listed as #2 Form M): 0.10 | Strain Index (SI) ([1]; listed as #2 Form M): 0.0048 | Tensile Strength ([1]; listed as #2 Form M): 0.79 Mpa | Worst Case Bonding Index (BLw) × 10^2 ([1]; listed as #2 Form M): 1.0

CC[C@H]1OC(=O)[C@H](C)[C@@H](O[C@H]2C[C@@](C)(OC)[C@@H](O)[C@H](C)O2)[C@H](C)[C@@H](O[C@@H]2O[C@H](C)C[C@H](N(C)C)[C@H]2O)[C@](C)(O)C[C@@H](C)CN(C)[C@H](C)[C@@H](O)[C@]1(C)O [Lot 6, azithromycin]
Carr's Compressibility Index ([2]; blend of 59.3 wt % azithromycin without glidant): 30

CC[C@H]1OC(=O)[C@H](C)[C@@H](O[C@H]2C[C@@](C)(OC)[C@@H](O)[C@H](C)O2)[C@H](C)[C@@H](O[C@@H]2O[C@H](C)C[C@H](N(C)C)[C@H]2O)[C@](C)(O)C[C@@H](C)CN(C)[C@H](C)[C@@H](O)[C@]1(C)O [Lot 7, azithromycin]
Brittle Fracture Index (BFI) ([1]; listed as #7 Form A): 0.10 | Strain Index (SI) ([1]; listed as #7 Form A): 0.0044 | Tensile Strength ([1]; listed as #7 Form A): 0.99 Mpa | Worst Case Bonding Index (BLw) × 10^2 ([1]; listed as #7 Form A): 0.9

CC[C@H]1OC(=O)[C@H](C)[C@@H](O[C@H]2C[C@@](C)(OC)[C@@H](O)[C@H](C)O2)[C@H](C)[C@@H](O[C@@H]2O[C@H](C)C[C@H](N(C)C)[C@H]2O)[C@](C)(O)C[C@@H](C)CN(C)[C@H](C)[C@@H](O)[C@]1(C)O [Lot 8, azithromycin]
Carr's Index [2]: 37

CC[C@H]1OC(=O)[C@H](C)[C@@H](O[C@H]2C[C@@](C)(OC)[C@@H](O)[C@H](C)O2)[C@H](C)[C@@H](O[C@@H]2O[C@H](C)C[C@H](N(C)C)[C@H]2O)[C@](C)(O)C[C@@H](C)CN(C)[C@H](C)[C@@H](O)[C@]1(C)O [Lot 4, azithromycin]
Strain Index (SI) ([1]; listed as #4 Form G): 0.0043 | Tensile Strength ([1]; listed as #4 Form G): 1.03 Mpa | Worst Case Bonding Index (BLw) × 10^2 ([1]; listed as #4 Form G): 0.8

CC[C@H]1OC(=O)[C@H](C)[C@@H](O[C@H]2C[C@@](C)(OC)[C@@H](O)[C@H](C)O2)[C@H](C)[C@@H](O[C@@H]2O[C@H](C)C[C@H](N(C)C)[C@H]2O)[C@](C)(O)C[C@@H](C)CN(C)[C@H](C)[C@@H](O)[C@]1(C)O [Lot 11, azithromycin]
Brittle Fracture Index (BFI) ([1]; listed as #11 Form J): 0.11 | Strain Index (SI) ([1]; listed as #11 Form J): 0.0043 | Tensile Strength ([1]; listed as #11 Form J): 0.69 Mpa | Worst Case Bonding Index (BLw) × 10^2 ([1]; listed as #11 Form J): 0.7
